Assay [1] has as its target T1, WT-TbpA (Escherichia coli, UniProt P31550).
The target of assay [2] is T1, WT-TbpA. Nature of the assay: biochemical.
Another assay deals with T2, Y27A-TbpA (Escherichia coli, UniProt P31550, Y27A).
T2 sequence (P31550 19-327 Y27A): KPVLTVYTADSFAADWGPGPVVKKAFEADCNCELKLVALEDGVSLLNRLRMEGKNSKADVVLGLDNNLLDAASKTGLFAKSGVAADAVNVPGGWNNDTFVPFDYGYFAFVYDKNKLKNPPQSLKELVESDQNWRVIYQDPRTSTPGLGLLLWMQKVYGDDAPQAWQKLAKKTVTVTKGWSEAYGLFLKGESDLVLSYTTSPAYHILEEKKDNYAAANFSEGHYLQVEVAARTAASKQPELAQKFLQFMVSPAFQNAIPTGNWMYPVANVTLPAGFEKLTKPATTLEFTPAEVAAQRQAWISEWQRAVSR
Nature of the assay: Nanopore recording of ligand binding to Y27A-TbpA inside ClyA-AS.

Read-outs that look alike come from different tables or passages of the source.

Data on three compounds can be found in PMC8518494 (Angewandte Chemie (International Ed. in English), 2021).

T1 sequence (P31550 19-327): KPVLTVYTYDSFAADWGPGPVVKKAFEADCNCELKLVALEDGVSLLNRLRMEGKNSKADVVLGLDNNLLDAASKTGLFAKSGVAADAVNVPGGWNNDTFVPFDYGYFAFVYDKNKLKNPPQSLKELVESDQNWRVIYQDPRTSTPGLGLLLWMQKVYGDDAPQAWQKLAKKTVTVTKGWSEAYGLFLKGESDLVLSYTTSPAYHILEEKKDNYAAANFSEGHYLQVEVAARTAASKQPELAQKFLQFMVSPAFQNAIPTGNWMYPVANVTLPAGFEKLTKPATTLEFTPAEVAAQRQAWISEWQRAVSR

As to `Cc1ncc(C[n+]2csc(CCO)c2C)c(N)n1` [thiamine, Thiamine], the “ΔIres%(thiamine)” value on WT-TbpA [1] (WT-TbpA 15 nM cis, 4 μM thiamine added to cis, −45 mV, 150 mM NaCl, 15 mM Tris.HCl pH 7.5) came to 3.1±0.6%; on Y27A-TbpA (Y27A-TbpA 15 nM cis, 4 μM thiamine added to cis, −45 mV), 6.9±0.6%. The “Ires%(thiamine), closed state” value was 45.9±0.8% at WT-TbpA [1] (WT-TbpA, thiamine-bound state) and 48.4±0.9% at Y27A-TbpA (Y27A-TbpA, thiamine-bound state). In addition, on WT-TbpA [1] (thiamine added to trans, WT-TbpA in cis), the “effect of addition of thiamine to the trans solution” value is “did not elicit additional current blockades”. The Kd on WT-TbpA [2] came to 67 ± 5 nM; at Y27A-TbpA (Kd app(cis), thiamine added to cis, Hill curve fit to bound fraction), 23.1 ± 0.1 nM; at Y27A-TbpA (Kd app(trans), thiamine added to trans), 91.1 ± 0.4 nM. Also, the “difference in apparent Kd between cis and trans” value at Y27A-TbpA (Y27A-TbpA) turned out to be 4 fold. Moreover, on Y27A-TbpA (Y27A-TbpA), the “difference in k on rates between cis and trans” value is 4 fold. The koff at Y27A-TbpA (read-out: k off(cis)) is 1.8 ± 0.3 s⁻¹; on Y27A-TbpA (read-out: k off(trans)) it was 1.7 ± 0.1 s⁻¹. For the same compound, the values for the kon at Y27A-TbpA (read-out: k on(cis)) and on Y27A-TbpA (read-out: k on(trans)) were 6.9e+07 ± 9e+06 M⁻¹ s⁻¹ and 1.4e+07 ± 3e+06 M⁻¹ s⁻¹, respectively. Also, the “effect of addition of thiamine to the trans chamber” value on Y27A-TbpA (thiamine added to trans, Y27A-TbpA in cis) was “induced thiamine events”. Besides, at Y27A-TbpA (thiamine, cis and trans), the Hill coefficient is 1.

In the case of `Cc1ncc(C[n+]2csc(CCOP(=O)(O)O)c2C)c(N)n1` [ThMP, thiamine monophosphate], on Y27A-TbpA (0.1 μM ThMP added to cis, first kind of bound event), the “ΔIres%(ThMP1)” value stood at 4.8±0.2%. Also, the “ΔIres%(ThMP2)” value at Y27A-TbpA (0.1 μM ThMP added to cis, second kind of bound event) was 7.3±0.3%. For the same compound, the kon on Y27A-TbpA (read-out: capture frequency (an approximate k on) for both events) is 1.6e+07 ± 4e+06 M⁻¹ s⁻¹. Besides, the koff on Y27A-TbpA (read-out: k off(ThMP1)) was determined as 2.3 ± 0.4 s⁻¹; on Y27A-TbpA (read-out: k off(ThMP2)), 2 ± 0.2 s⁻¹.

As for `Cc1ncc(C[n+]2csc(CCO[P@](=O)(O)OP(=O)(O)O)c2C)c(N)n1` [ThDP, thiamine diphosphate], the Kd on Y27A-TbpA is about 2000 nM. In addition, on Y27A-TbpA (2 μM ThDP added to cis, first type of event), the “ΔIres%(ThDP1)” value was 4.0±0.1%. Moreover, the “ΔIres%(ThDP2)” value at Y27A-TbpA (2 μM ThDP added to cis, second type of event) is 7.2±0.1%. In addition, on Y27A-TbpA (2 μM ThDP, cis), the “capture frequency for both events” value came out at 6.5 ± 3 µM⁻¹ s⁻¹. For the same compound, the koff is 2.9 ± 0.4 s⁻¹ on Y27A-TbpA (read-out: k off(ThDP1)) and 1.7 ± 0.3 s⁻¹ at Y27A-TbpA (read-out: k off(ThDP2)).

For orientation: Hill coefficient means the slope factor of the fitted curve.
